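Cultured in 96-well plates, cells were exposed to test compound for 48 hours across five concentrations. At the TGI there is no net growth.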
What was measured:
Experiment in all cases: inhibition of tumour cell growth, NCI panel, 48 h
[1] = system: 786-0 renal
[2] = system: A498 renal
[3] = system: A549 NSCLC
[4] = system: ACHN renal
[5] = system: BT-549 breast
[6] = system: CAKI-1 renal
[7] = system: CCRF-CEM leukemia
[8] = system: COLO 205 colon
[9] = system: DU-145 prostate
[10] = system: EKVX NSCLC
[11] = system: HCC-2998 colon
[12] = system: HCT-116 colon
[13] = system: HCT-15 colon
[14] = system: HL-60(TB) leukemia
[15] = system: HOP-62 NSCLC
[16] = system: HOP-92 NSCLC
[17] = system: HS 578T breast
[18] = system: HT29 colon
[19] = system: IGROV1 ovarian
[20] = system: K-562 leukemia
[21] = system: KM12 colon
[22] = system: LOX IMVI melanoma
[23] = system: M14 melanoma
[24] = system: MALME-3M melanoma
[25] = system: MCF7 breast
[26] = system: MDA-MB-231 breast
[27] = system: MDA-MB-435
[28] = system: MDA-N
[29] = system: MOLT-4 leukemia
[30] = system: NCI-H226 lung
[31] = system: NCI-H23 lung
[32] = system: NCI-H460 lung
[33] = system: NCI-H522 lung
[34] = system: NCI/ADR-RES ovarian
[35] = system: OVCAR-3 ovarian
[36] = system: OVCAR-4 ovarian
[37] = system: OVCAR-5 ovarian
[38] = system: OVCAR-8 ovarian
[39] = system: PC-3 prostate
[40] = system: RPMI-8226 leukemia
[41] = system: RXF 393 renal
[42] = system: SF-268 CNS
[43] = system: SF-295 CNS
[44] = system: SF-539 CNS
[45] = system: SK-MEL-2 melanoma
[46] = system: SK-MEL-28 melanoma
[47] = system: SK-MEL-5 melanoma
[48] = system: SK-OV-3 ovarian
[49] = system: SN12C renal
[50] = system: SNB-19 CNS
[51] = system: SNB-75 CNS
[52] = system: SR leukemia
[53] = system: SW-620 colon
[54] = system: T-47D breast
[55] = system: TK-10 renal
[56] = system: U251 CNS
[57] = system: UACC-257 melanoma
[58] = system: UACC-62 melanoma
[59] = system: UO-31 renal
[60] = system: DLD-1 colon
[61] = system: KM20L2 colon
[62] = system: LXFL 529 NSCLC
[63] = system: SNB-78 CNS

Structure (SMILES): O=C(O)C(Cc1c[nH]c2ccccc12)C(=O)NO (centres undefined)
- TGI [1]: > 100 µM
- TGI [2]: > 100 µM
- TGI [3]: > 100 µM
- TGI [4]: > 100 µM
- TGI [5]: > 100 µM
- TGI [6]: > 100 µM
- TGI [7]: > 100 µM
- TGI [8]: > 100 µM
- TGI [9]: > 100 µM
- TGI [10]: > 100 µM
- TGI [11]: > 100 µM
- TGI [12]: > 100 µM
- TGI [13]: > 100 µM
- TGI [14]: > 100 µM
- TGI [15]: > 100 µM
- TGI [16]: > 100 µM
- TGI [17]: > 100 µM
- TGI [18]: > 100 µM
- TGI [19]: > 100 µM
- TGI [20]: > 100 µM
- TGI [21]: > 100 µM
- TGI [22]: > 100 µM
- TGI [23]: > 100 µM
- TGI [24]: > 100 µM
- TGI [25]: > 100 µM
- TGI [26]: > 100 µM
- TGI [27]: > 100 µM
- TGI [28]: > 100 µM
- TGI [29]: > 100 µM
- TGI [30]: > 100 µM
- TGI [31]: > 100 µM
- TGI [32]: > 100 µM
- TGI [33]: > 100 µM
- TGI [34]: > 100 µM
- TGI [35]: > 100 µM
- TGI [36]: > 100 µM
- TGI [37]: > 100 µM
- TGI [38]: > 100 µM
- TGI [39]: > 100 µM
- TGI [40]: > 100 µM
- TGI [41]: > 100 µM
- TGI [42]: > 100 µM
- TGI [43]: > 100 µM
- TGI [44]: > 100 µM
- TGI [45]: > 100 µM
- TGI [46]: > 100 µM
- TGI [47]: > 100 µM
- TGI [48]: > 100 µM
- TGI [49]: > 100 µM
- TGI [50]: > 100 µM
- TGI [51]: > 100 µM
- TGI [52]: > 100 µM
- TGI [53]: > 100 µM
- TGI [54]: > 100 µM
- TGI [55]: > 100 µM
- TGI [56]: > 100 µM
- TGI [57]: > 100 µM
- TGI [58]: > 100 µM
- TGI [59]: > 100 µM

Structure (SMILES): COc1cccc([C@@]2(O)c3c(ccc(O)c3OC)[C@H]2OC)c1OC
- TGI [1]: 30.3 µM
- TGI [2]: > 100 µM
- TGI [3]: > 100 µM
- TGI [4]: > 100 µM
- TGI [6]: 78.4 µM
- TGI [7]: > 100 µM
- TGI [60]: > 100 µM
- TGI [10]: > 100 µM
- TGI [11]: > 100 µM
- TGI [14]: 57.3 µM
- TGI [15]: > 100 µM
- TGI [16]: > 100 µM
- TGI [18]: > 100 µM
- TGI [19]: > 100 µM
- TGI [20]: > 100 µM
- TGI [21]: > 100 µM
- TGI [61]: > 100 µM
- TGI [62]: 62.1 µM
- TGI [23]: > 100 µM
- TGI [24]: > 100 µM
- TGI [29]: > 100 µM
- TGI [30]: > 100 µM
- TGI [31]: > 100 µM
- TGI [32]: > 100 µM
- TGI [33]: 52.2 µM
- TGI [35]: > 100 µM
- TGI [36]: > 100 µM
- TGI [37]: > 100 µM
- TGI [38]: > 100 µM
- TGI [40]: > 100 µM
- TGI [42]: > 100 µM
- TGI [43]: > 100 µM
- TGI [45]: > 100 µM
- TGI [46]: > 100 µM
- TGI [47]: > 100 µM
- TGI [48]: > 100 µM
- TGI [49]: > 100 µM
- TGI [50]: > 100 µM
- TGI [51]: > 100 µM
- TGI [63]: > 100 µM
- TGI [52]: > 100 µM
- TGI [53]: > 100 µM
- TGI [55]: 93.6 µM
- TGI [56]: > 100 µM
- TGI [57]: > 100 µM
- TGI [59]: > 100 µM

Structure (SMILES): CC(C)[Si]1(C(C)C)OCC2OC(N3C(=O)NC(=O)C[C@@H]3C(O)c3ccccc3)CC2O[Si](C(C)C)(C(C)C)O1 (some centres undefined)
- TGI [1]: 12.5 µM
- TGI [2]: 17.7 µM
- TGI [3]: 24.1 µM
- TGI [4]: 19.7 µM
- TGI [5]: 33.4 µM
- TGI [6]: 30.7 µM
- TGI [7]: 8.46 µM
- TGI [8]: 25.8 µM
- TGI [9]: 26.5 µM
- TGI [10]: 23.4 µM
- TGI [11]: 4.46 µM
- TGI [12]: 9.79 µM
- TGI [13]: 18.1 µM
- TGI [14]: 21.6 µM
- TGI [15]: 27.5 µM
- TGI [16]: 20.4 µM
- TGI [17]: 8.71 µM
- TGI [18]: 6.59 µM
- TGI [19]: 17.6 µM
- TGI [20]: > 30.2 µM
- TGI [21]: 7.1 µM
- TGI [22]: 10.7 µM
- TGI [23]: 30.1 µM
- TGI [24]: 12.8 µM
- TGI [25]: 15.2 µM
- TGI [26]: 12.1 µM
- TGI [27]: 18.2 µM
- TGI [28]: 9.61 µM
- TGI [29]: 9.31 µM
- TGI [30]: 8.9 µM
- TGI [31]: 21.6 µM
- TGI [32]: 34.3 µM
- TGI [33]: 7.77 µM
- TGI [34]: 13.4 µM
- TGI [35]: 11.4 µM
- TGI [36]: 14.8 µM
- TGI [37]: 27.6 µM
- TGI [38]: 17.3 µM
- TGI [39]: 15.3 µM
- TGI [40]: 12.2 µM
- TGI [41]: 13.4 µM
- TGI [42]: 10.6 µM
- TGI [43]: 9.97 µM
- TGI [44]: 32.4 µM
- TGI [45]: 27.3 µM
- TGI [46]: 12.9 µM
- TGI [47]: 26.3 µM
- TGI [48]: 11.8 µM
- TGI [49]: 12.2 µM
- TGI [50]: 25.4 µM
- TGI [51]: 17.6 µM
- TGI [52]: > 19.8 µM
- TGI [53]: 9 µM
- TGI [54]: 14.7 µM
- TGI [55]: 24 µM
- TGI [56]: 9.06 µM
- TGI [57]: 16.5 µM
- TGI [58]: 22.4 µM
- TGI [59]: 24.8 µM

Reference: PubChem BioAssay (NCI)
